Patent US20090312288A1 (TAKEDA PHARMACEUTICAL COMPANY LIMITED, priority 2008, published 2009)

Molecular target: Aurora B/INCENP (Homo sapiens, UniProt Q96GD4)
Experiment: Determination of inhibition of AIK: Aurora B/INCENP direct fluorescence polarization (IMAP) assay
Type: biochemical
Conditions: 10 uM ATP, 0.8 nM Aurora B/INCENP; values given as bins; read-out: IC50 of Exemplified Compounds Against AIK B
Procedure: Detection of the reaction product is performed by addition of Progressive IMAP binding reagent (Molecular Devices). Reaction product may be determined quantitatively by FP using an Analyst HT plate reader (Molecular Devices) with an excitation wavelength at 485 nm and emission at 530 nm and using a Fluorescein 505 dichroic mirror.
The assay reaction may be initiated as follows: 2 ul of (3×) 300 nM Fl-Peptide/30 uM ATP was added to each well of the plate, followed by the addition of 2 ul of (3×) inhibitor (2 fold serial dilutions for 11 data points for each inhibitor) containing 15% DMSO. Two microliters of (3×) 2.4 nM AuroraB/INCENP solution may be added to initiate the reaction (final enzyme concentration was 0.8 nM for Aurora B/INCENP). The reaction mixture may then be incubated at room temperature for 45 min, and quenched and developed by addition of 20 ul of 1 to 400 diluted Progressive IMAP binding reagent in 1× proprietary Progressive IMAP binding buffer A. Fluorescence polarization readings of the resulting reaction mixtures may be measured after a 60-minute incubation at room temperature.
IC50 values may be calculated by non-linear curve fitting of the compound concentrations and fluorescent polarization values to the standard IC50 equation.

Chain of Aurora B/INCENP (Q96GD4 whole entry): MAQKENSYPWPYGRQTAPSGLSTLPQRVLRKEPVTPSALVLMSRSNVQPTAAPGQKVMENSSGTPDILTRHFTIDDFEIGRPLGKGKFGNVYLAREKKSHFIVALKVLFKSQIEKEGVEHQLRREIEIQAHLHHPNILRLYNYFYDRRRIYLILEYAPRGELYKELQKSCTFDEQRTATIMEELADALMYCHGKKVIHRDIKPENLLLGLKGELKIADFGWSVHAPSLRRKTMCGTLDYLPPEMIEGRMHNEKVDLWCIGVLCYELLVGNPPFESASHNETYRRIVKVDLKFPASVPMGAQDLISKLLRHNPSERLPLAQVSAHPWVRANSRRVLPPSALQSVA
Chain of Aurora B/INCENP (Q9NQS7 whole entry partner): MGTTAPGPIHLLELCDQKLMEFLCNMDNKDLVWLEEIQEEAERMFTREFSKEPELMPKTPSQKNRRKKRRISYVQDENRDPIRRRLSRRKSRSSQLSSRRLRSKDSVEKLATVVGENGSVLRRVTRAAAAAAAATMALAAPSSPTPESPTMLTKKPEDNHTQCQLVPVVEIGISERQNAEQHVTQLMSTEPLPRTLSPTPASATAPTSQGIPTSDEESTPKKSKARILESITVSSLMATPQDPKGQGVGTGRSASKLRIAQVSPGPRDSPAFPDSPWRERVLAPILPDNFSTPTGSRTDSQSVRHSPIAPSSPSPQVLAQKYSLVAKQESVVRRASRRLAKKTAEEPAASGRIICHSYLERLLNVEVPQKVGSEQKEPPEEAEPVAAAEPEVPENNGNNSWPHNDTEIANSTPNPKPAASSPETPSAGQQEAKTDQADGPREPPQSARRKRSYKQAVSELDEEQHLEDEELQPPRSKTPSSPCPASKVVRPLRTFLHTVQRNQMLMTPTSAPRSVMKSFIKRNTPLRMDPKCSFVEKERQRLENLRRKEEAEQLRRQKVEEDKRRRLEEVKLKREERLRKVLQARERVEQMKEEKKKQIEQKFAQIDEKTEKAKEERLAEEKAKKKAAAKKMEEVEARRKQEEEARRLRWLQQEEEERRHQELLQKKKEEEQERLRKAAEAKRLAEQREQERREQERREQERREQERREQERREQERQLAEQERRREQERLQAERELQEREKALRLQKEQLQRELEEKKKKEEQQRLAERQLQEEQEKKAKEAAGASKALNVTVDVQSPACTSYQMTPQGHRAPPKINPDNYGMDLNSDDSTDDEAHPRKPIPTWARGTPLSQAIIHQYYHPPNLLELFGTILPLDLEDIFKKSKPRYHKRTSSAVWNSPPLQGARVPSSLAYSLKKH

Row | IC50 [nM] | SMILES
1 | 8.6 to 13 | CCS(=O)(=O)c1cccc(-c2cc(C(=O)NCCCN(C)C)c(C)c3[nH]c4ncc(C)cc4c23)c1 [Compound 115, N-(3-(dimethylamino)propyl)-5-(3-(ethylsulfonyl)phenyl)-3,8-dimethyl-9H-pyrido[2,3-b]indole-7-carboxamide]
2 | 8.6 to 13 | CCS(=O)(=O)c1cccc(-c2cc(C(=O)OC)cc3[nH]c4ncc(C)cc4c23)c1 [Compound 133, 5-(3-Ethanesulfonyl-phenyl)-3-methyl-9H-pyrido[2,3-b]indole-7-carboxylic acid methyl ester]
3 | < 4 | CCS(=O)(=O)c1cccc(-c2cc(CO)cc3[nH]c4ncc(C)cc4c23)c1 [Compound 134, [5-(3-Ethanesulfonyl-phenyl)-3-methyl-9H-pyrido[2,3-b]indol-7-yl]-methanol]
4 | > 13 | CCS(=O)(=O)c1cccc(-c2cc(CN(C)C)cc3[nH]c4ncc(C)cc4c23)c1 [Compound 135, [5-(3-Ethanesulfonyl-phenyl)-3-methyl-9H-pyrido[2,3-b]indol-7-ylmethyl]-dimethyl-amine]
5 | > 13 | CCS(=O)(=O)c1cccc(-c2cc(CN3CCOCC3)cc3[nH]c4ncc(C)cc4c23)c1 [Compound 136, 5-(3-Ethanesulfonyl-phenyl)-3-methyl-7-morpholin-4-ylmethyl-9H-pyrido[2,3-b]indole]
6 | 8.6 to 13 | CCS(=O)(=O)c1cccc(-c2cc(CN3CCN(C)CC3)cc3[nH]c4ncc(C)cc4c23)c1 [Compound 137, 5-(3-Ethanesulfonyl-phenyl)-3-methyl-7-(4-methyl-piperazin-1-ylmethyl)-9H-pyrido[2,3-b]indole]
7 | > 13 | CCS(=O)(=O)c1cccc(-c2cc(CN3CCCC3)cc3[nH]c4ncc(C)cc4c23)c1 [Compound 138, 5-(3-Ethanesulfonyl-phenyl)-3-methyl-7-pyrrolidin-1-ylmethyl-9H-pyrido[2,3-b]indole]
8 | > 13 | CCNCc1cc(-c2cccc(S(=O)(=O)CC)c2)c2c(c1)[nH]c1ncc(C)cc12 [Compound 139, [5-(3-Ethanesulfonyl-phenyl)-3-methyl-9H-pyrido[2,3-b]indol-7-ylmethyl]-ethyl-amine]
9 | 4 to 5.5 | CCS(=O)(=O)c1cccc(-c2cc(C(=O)O)cc3[nH]c4ncc(C)cc4c23)c1 [Compound 140, 5-(3-Ethanesulfonyl-phenyl)-3-methyl-9H-pyrido[2,3-b]indole-7-carboxylic acid]
10 | > 13 | CCS(=O)(=O)c1cccc(-c2cc(C(=O)N3CCN(C)CC3)cc3[nH]c4ncc(C)cc4c23)c1 [Compound 141, [5-(3-Ethanesulfonyl-phenyl)-3-methyl-9H-pyrido[2,3-b]indol-7-yl]-(4-methyl-piperazin-1-yl)-methanone]
11 | 5.6 to 8.5 | CCS(=O)(=O)c1cccc(-c2cc(C(=O)NCCN(C)C)cc3[nH]c4ncc(C)cc4c23)c1 [Compound 142, 5-(3-Ethanesulfonyl-phenyl)-3-methyl-9H-pyrido[2,3-b]indole-7-carboxylic acid (2-dimethylamino-ethyl)-amide]
12 | > 13 | CCS(=O)(=O)c1cccc(-c2cc(C(=O)NCCCN(C)C)cc3[nH]c4ncc(C)cc4c23)c1 [Compound 143, 5-(3-Ethanesulfonyl-phenyl)-3-methyl-9H-pyrido[2,3-b]indole-7-carboxylic acid (3-dimethylamino-propyl)-amide]
13 | > 13 | CCS(=O)(=O)c1cccc(-c2cc(C(=O)N3CCC(N(C)C)C3)cc3[nH]c4ncc(C)cc4c23)c1 (stereo not shown) [Compound 145, (3-Dimethylamino-pyrrolidin-1-yl)-[5-(3-ethanesulfonyl-phenyl)-3-methyl-9H-pyrido[2,3-b]indol-7-yl]-methanone]
14 | 5.6 to 8.5 | CCNC(=O)c1cc(-c2cccc(S(=O)(=O)CC)c2)c2c(c1)[nH]c1ncc(C)cc12 [Compound 146, N-ethyl-5-(3-(ethylsulfonyl)phenyl)-3-methyl-9H-pyrido[2,3-b]indole-7-carboxamide]
15 | > 13 | CCS(=O)(=O)c1cccc(-c2c(Br)c(C(=O)OC)cc3[nH]c4ncc(C)cc4c23)c1 [Compound 147, 6-Bromo-5-(3-ethanesulfonyl-phenyl)-3-methyl-9H-pyrido[2,3-b]indole-7-carboxylic acid methyl ester]
16 | 4 to 5.5 | CCS(=O)(=O)c1cccc(-c2cc(C(=O)OC)c(Br)c3[nH]c4ncc(C)cc4c23)c1 [Compound 148, 8-Bromo-5-(3-ethanesulfonyl-phenyl)-3-methyl-9H-pyrido[2,3-b]indole-7-carboxylic acid methyl ester]
17 | > 13 | CCS(=O)(=O)c1cccc(-c2c(Cl)c(C(=O)OC)cc3[nH]c4ncc(C)cc4c23)c1 [Compound 149, 6-Chloro-5-(3-ethanesulfonyl-phenyl)-3-methyl-9H-pyrido[2,3-b]indole-7-carboxylic acid methyl ester]
18 | 4 to 5.5 | CCS(=O)(=O)c1cccc(-c2cc(C(=O)OC)c(Cl)c3[nH]c4ncc(C)cc4c23)c1 [Compound 150, 8-Chloro-5-(3-ethanesulfonyl-phenyl)-3-methyl-9H-pyrido[2,3-b]indole-7-carboxylic acid methyl ester]
19 | < 4 | CCS(=O)(=O)c1cccc(-c2ccc(O)c3[nH]c4ncc(C)cc4c23)c1 [Compound 158, 5-(3-(ethylsulfonyl)phenyl)-3-methyl-9H-pyrido[2,3-b]indol-8-ol]

More lines, now with the values behind:

Row | SMILES | IC50 [nM]
20 | CCS(=O)(=O)c1cccc(-c2cc(C(=O)NCC3CCN(C)CC3)c(C)c3[nH]c4ncc(C)cc4c23)c1 [Compound 114, 5-(3-(ethylsulfonyl)phenyl)-3,8-dimethyl-N-((1-methylpiperidin-4-yl)methyl)-9H-pyrido[2,3-b]indole-7-carboxamide] | 5.6 to 8.5
21 | CCS(=O)(=O)c1cccc(-c2cc(C(=O)NCCN3CCCC3)c(C)c3[nH]c4ncc(C)cc4c23)c1 [Compound 116, 5-(3-(ethylsulfonyl)phenyl)-3,8-dimethyl-N-(2-(pyrrolidin-1-yl)ethyl)-9H-pyrido[2,3-b]indole-7-carboxamide] | 8.6 to 13
22 | Cc1cnc2[nH]c3c(C)c(C(=O)NC4CCN(C)CC4)cc(-c4cccc(NC(=O)C5CC5)c4)c3c2c1 [Compound 120, 5-(3-(cyclopropanecarboxamido)phenyl)-3,8-dimethyl-N-(1-methyl-piperidin-4-yl)-9H-pyrido[2,3-b]indole-7-carboxamide] | 5.6 to 8.5
23 | Cc1cnc2[nH]c3c(C)c(C(=O)NCCN(C)C)cc(-c4cccc(C(=O)NC5CC5)c4)c3c2c1 [Compound 122, 5-(3-(cyclopropylcarbamoyl)phenyl)-N-(2-(dimethylamino)ethyl)-3,8-dimethyl-9H-pyrido[2,3-b]indole-7-carboxamide] | > 13
24 | Cc1cnc2[nH]c3cc(C(=O)O)cc(SCc4ccccc4)c3c2c1 [Compound 151, 5-(benzylthio)-3-methyl-9H-pyrido[2,3-b]indole-7-carboxylic acid] | > 13
25 | Cc1cnc2[nH]c3cc(C(=O)NCCN(C)C)cc(SCc4ccccc4)c3c2c1 [Compound 152, 5-(benzylthio)-N-(2-(dimethylamino)ethyl)-3-methyl-9H-pyrido[2,3-b]indole-7-carboxamide] | > 13
26 | CCNS(=O)(=O)c1cccc(-c2cc(C(=O)NC3CCN(C)CC3)c(C)c3[nH]c4ncc(C)cc4c23)c1 [Compound 153] | > 13
27 | Cc1cnc2[nH]c3c(C)c(C(=O)NC4CCN(C)CC4)cc(-c4cccc(S(=O)(=O)C5CC5)c4)c3c2c1 [Compound 154, 5-(3-(cyclopropylsulfonyl)phenyl)-3,8-dimethyl-N-(1-methylpiperidin-4-yl)-9H-pyrido[2,3-b]indole-7-carboxamide] | 8.6 to 13
28 | COc1ccc(-c2cccc(S(=O)(=O)N3CCCC3)c2)c2c1[nH]c1ncc(C)cc12 [Compound 159, 8-methoxy-3-methyl-5-(3-(pyrrolidin-1-ylsulfonyl)phenyl)-9H-pyrido[2,3-b]indole] | 8.6 to 13
29 | COc1ccc(-c2cccc(S(=O)(=O)[C@@H]3CCNC3)c2)c2c1[nH]c1ncc(C)cc12 [Compound 160, (R)-8-methoxy-3-methyl-5-(3-(pyrrolidin-3-ylsulfonyl)phenyl)-9H-pyrido[2,3-b]indole] | 5.6 to 8.5
30 | COc1ccc(-c2cccc(NC(C)=O)c2)c2c1[nH]c1ncc(C)cc12 [Compound 162, N-(3-(8-methoxy-3-methyl-9H-pyrido[2,3-b]indol-5-yl)phenyl)acetamide] | 5.6 to 8.5
31 | COc1ccc(-c2cccc(NC(=O)C3CC3)c2)c2c1[nH]c1ncc(C)cc12 [Compound 163, N-(3-(8-methoxy-3-methyl-9H-pyrido[2,3-b]indol-5-yl)phenyl)cyclopropanecarboxamide] | 8.6 to 13
32 | COc1ccc(-c2cccc(C(=O)NC3CC3)c2)c2c1[nH]c1ncc(C)cc12 [Compound 164, N-cyclopropyl-3-(8-methoxy-3-methyl-9H-pyrido[2,3-b]indol-5-yl)benzamide] | 5.6 to 8.5
33 | CCN(CC)C(=O)c1cccc(-c2ccc(OC)c3[nH]c4ncc(C)cc4c23)c1 [Compound 165, N,N-diethyl-3-(8-methoxy-3-methyl-9H-pyrido[2,3-b]indol-5-yl)benzamide] | 4 to 5.5
34 | COc1ccc(-c2ccc3c(c2)OCO3)c2c1[nH]c1ncc(C)cc12 [Compound 166, 5-(benzo[d][1,3]dioxol-5-yl)-8-methoxy-3-methyl-9H-pyrido[2,3-b]indole] | > 13
